Test results: patent US20240398784A1, “C-LINKED ISOQUINOLINE AMIDES AS LRRK2 INHIBITORS, PHARMACEUTICAL COMPOSITIONS, AND USES THEREOF” (Merck Sharp & Dohme LLC, priority 2021, published 2024)

Target: LRRK2 G2019S (Homo sapiens, UniProt Q5S007, G2019S)
Experiment: LRRK2 G2019S Km ATP LanthaScreen assay
Assay type: biochemical
Settings: for IC50: read-out: LRRK2 pIC50 (converted)

Chain of LRRK2 G2019S (Q5S007 whole entry G2019S): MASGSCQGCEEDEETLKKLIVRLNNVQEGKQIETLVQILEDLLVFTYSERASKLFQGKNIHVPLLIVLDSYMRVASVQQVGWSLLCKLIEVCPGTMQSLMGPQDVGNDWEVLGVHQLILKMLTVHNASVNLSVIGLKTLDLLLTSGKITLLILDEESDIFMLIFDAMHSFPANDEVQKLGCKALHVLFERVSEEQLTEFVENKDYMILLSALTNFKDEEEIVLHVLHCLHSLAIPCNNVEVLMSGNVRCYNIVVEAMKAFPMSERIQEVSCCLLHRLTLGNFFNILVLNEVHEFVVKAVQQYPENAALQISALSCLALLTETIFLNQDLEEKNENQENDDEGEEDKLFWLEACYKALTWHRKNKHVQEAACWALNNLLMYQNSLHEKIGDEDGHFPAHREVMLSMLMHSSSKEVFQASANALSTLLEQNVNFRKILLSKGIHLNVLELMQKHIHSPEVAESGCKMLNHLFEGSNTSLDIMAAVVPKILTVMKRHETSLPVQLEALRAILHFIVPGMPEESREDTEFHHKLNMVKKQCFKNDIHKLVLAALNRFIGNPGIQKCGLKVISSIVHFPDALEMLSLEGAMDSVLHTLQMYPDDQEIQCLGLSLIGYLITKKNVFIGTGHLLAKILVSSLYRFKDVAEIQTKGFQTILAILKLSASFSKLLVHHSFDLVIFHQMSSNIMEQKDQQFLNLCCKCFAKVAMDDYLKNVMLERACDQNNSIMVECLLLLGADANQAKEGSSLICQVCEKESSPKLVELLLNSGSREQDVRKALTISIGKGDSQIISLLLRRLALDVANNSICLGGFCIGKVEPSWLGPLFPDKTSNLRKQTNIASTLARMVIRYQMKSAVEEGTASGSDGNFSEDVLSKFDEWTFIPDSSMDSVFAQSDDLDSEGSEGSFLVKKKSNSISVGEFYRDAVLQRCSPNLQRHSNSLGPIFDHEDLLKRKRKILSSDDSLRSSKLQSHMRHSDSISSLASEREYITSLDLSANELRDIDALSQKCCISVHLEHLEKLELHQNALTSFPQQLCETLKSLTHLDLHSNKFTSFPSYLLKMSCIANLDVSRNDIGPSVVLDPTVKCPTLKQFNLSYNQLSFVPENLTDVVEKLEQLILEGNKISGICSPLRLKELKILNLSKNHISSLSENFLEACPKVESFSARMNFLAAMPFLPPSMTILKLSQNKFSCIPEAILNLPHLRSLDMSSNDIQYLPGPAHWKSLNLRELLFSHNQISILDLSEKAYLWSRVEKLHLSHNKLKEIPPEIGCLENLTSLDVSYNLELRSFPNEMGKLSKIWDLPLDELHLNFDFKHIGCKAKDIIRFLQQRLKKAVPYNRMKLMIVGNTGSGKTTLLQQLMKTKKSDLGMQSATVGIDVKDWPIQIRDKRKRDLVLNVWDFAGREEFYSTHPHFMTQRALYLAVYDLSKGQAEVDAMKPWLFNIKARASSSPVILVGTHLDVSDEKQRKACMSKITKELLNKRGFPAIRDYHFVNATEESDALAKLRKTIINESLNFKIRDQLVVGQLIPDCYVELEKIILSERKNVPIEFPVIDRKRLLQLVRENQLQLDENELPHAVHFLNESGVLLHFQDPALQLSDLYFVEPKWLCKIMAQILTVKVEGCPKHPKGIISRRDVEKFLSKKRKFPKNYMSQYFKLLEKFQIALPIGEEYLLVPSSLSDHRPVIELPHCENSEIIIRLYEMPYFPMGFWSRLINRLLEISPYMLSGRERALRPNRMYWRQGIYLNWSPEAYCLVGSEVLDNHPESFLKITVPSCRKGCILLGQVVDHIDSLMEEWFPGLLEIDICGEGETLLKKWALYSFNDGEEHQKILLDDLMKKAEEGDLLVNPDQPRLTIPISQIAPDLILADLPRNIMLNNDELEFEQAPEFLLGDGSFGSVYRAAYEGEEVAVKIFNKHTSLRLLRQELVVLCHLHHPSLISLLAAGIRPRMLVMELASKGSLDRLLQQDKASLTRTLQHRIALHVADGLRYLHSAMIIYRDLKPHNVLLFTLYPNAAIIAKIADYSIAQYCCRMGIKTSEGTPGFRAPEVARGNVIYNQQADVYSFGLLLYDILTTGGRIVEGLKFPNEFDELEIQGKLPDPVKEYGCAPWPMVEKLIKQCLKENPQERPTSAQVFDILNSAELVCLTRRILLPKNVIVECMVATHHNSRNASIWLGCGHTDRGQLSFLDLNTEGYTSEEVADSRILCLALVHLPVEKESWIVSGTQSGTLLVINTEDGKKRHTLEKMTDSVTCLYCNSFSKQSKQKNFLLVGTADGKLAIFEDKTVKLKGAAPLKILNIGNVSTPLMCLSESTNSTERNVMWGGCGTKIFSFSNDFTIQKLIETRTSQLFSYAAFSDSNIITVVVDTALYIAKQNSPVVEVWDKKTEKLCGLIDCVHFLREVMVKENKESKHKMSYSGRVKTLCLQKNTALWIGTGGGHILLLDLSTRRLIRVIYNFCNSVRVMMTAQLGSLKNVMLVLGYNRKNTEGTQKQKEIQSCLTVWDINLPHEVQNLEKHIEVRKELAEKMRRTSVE

CC1(N2CCC(c3cc4cc(NC(=O)C5CCC6(CCC6)OC5)ncc4cc3Cl)CC2)COCC1O (single isomer, unassigned) [Ex-4.24, N-(7-chloro-6-(1-(4-hydroxy-3-methyltetrahydrofuran-3-yl)piperidin-4-yl)isoquinolin-3-yl)-5-oxaspiro[3.5]nonane-7-carboxamide]
IC50: 0.692 nM

CCC1C(C(=O)Nc2cc3cc(C4CCN(C5(C)COCC5F)CC4)c(Cl)cc3cn2)C1c1cnn(C)c1 (single isomer, unassigned) [Ex-1.34, (1R,2R,3R or 1R,2S,3R or 1S,2R,3S, or 1S,2S,3S)-N-(7-chloro-6-(1-((3R,4R or 3S,4S)-4-fluoro-3-methyltetrahydrofuran-3-yl)piperidin-4-yl)isoquinolin-3-yl)-2-ethyl-3-(1-methyl-1H-pyrazol-4-yl)cyclopropane-1-carboxamide]
IC50: 0.0813 nM

CC1(c2ccccn2)CC1C(=O)Nc1cc2cc(C3CCN(C4(C)COCC4O)CC3)c(Cl)cc2cn1 (centres unmarked) [Ex-2.90]
IC50: 52.5 nM

Cn1ncc(C2CC2C(=O)Nc2cc3cc(C4(C#N)CC45CC5)ccc3cn2)c1C(F)(F)F (centres unmarked) [Ex-2.48]
IC50: 324 nM

CC1(N2CCC(c3cc4cc(NC(=O)C5CC56CCOCC6)ncc4cc3Cl)CC2)COCC1F (single isomer, unassigned) [Ex-6.24, N-(7-chloro-6-(1-(4-fluoro-3-methyltetrahydrofuran-3-yl)piperidin-4-yl)isoquinolin-3-yl)-6-oxaspiro[2.5]octane-1-carboxamide]
IC50: 0.0813 nM

CC1(N2CCC(c3cc4cc(NC(=O)C5C6CCOCC65)ncc4cc3Cl)CC2)COCC1F (single isomer, unassigned) [Ex-6.42, N-(7-chloro-6-(1-(4-fluoro-3-methyltetrahydrofuran-3-yl)piperidin-4-yl)isoquinolin-3-yl)-3-oxabicyclo[4.1.0]heptane-7-carboxamide]
IC50: 0.38 nM

Cn1cc(C(=O)Nc2cc3cc(C4CCN(C5COC5)CC4)c(Cl)cc3cn2)cn1 [Ex-1.36, N-(7-chloro-6-(1-(oxetan-3-yl)piperidin-4-yl)isoquinolin-3-yl)-1-methyl-1H-pyrazole-4-carboxamide]
IC50: 5.89 nM

CC1(C)CC(C(=O)Nc2cc3cc(C4CCN(C5(C)CCOC5)CC4)c(Cl)cc3cn2)CCO1 (single isomer, unassigned) [Ex-6.45, N-(7-chloro-6-(1-(3-methyltetrahydrofuran-3-yl)piperidin-4-yl)isoquinolin-3-yl)-2,2-dimethyltetrahydro-2H-pyran-4-carboxamide]
IC50: 2.14 nM

O=C(Nc1cc2cc(C3CCN(C4COC4)CC3)c(Cl)cc2cn1)C1CC1 [Ex-7.6, N-(7-chloro-6-(1-(oxetan-3-yl)piperidin-4-yl)isoquinolin-3-yl)cyclopropanecarboxamide]
IC50: 2.14 nM

N#CC1(c2cc3cc(NC(=O)C4CC4)ncc3cc2F)CC12CC2 (single isomer, unassigned) [Ex-18.9, (R or S)-N-(6-(1-cyanospiro[2.2]pentan-1-yl)-7-fluoroisoquinolin-3-yl)cyclopropanecarboxamide]
IC50: 35.5 nM

N#CC1(c2ccc3cnc(NC(=O)C4CCN(CC(F)(F)F)C4)cc3c2)CC12CC2 (centres unmarked) [Ex-2.44]
IC50: 39.8 nM

COC1CN(C2CCC(c3cc4cc(NC(=O)C5CC56CCOCC6)ncc4cc3Cl)CC2)C1 (single isomer, unassigned) [Ex-11.3, N-(7-chloro-6-(4-(3-methoxyazetidin-1-yl)cyclohexyl)isoquinolin-3-yl)-6-oxaspiro[2.5]octane-1-carboxamide]
IC50: 0.0813 nM

CC1(C)CC(C(=O)Nc2cc3cc(C4(C#N)CC45CC5)ccc3cn2)CCO1 (centres unmarked) [Ex-2.57]
IC50: 2.14 nM

CC1(C)CC1C(=O)Nc1cc2cc(C3CCN(C4(C)COCC4O)CC3)c(Cl)cc2cn1 (centres unmarked) [Ex-2.11]
IC50: 2 nM

COC1CC(C(=O)Nc2cc3cc(C4(C#N)CC45CC5)ccc3cn2)C1 (single isomer, unassigned) [Ex-1.4, (1R,3R or 1S,3S)-N-(6-((R or S)-1-cyanospiro[2.2]pentan-1-yl)isoquinolin-3-yl)-3-methoxycyclobutane-1-carboxamide]
IC50: 3.63 nM

Cn1cc(C(=O)Nc2cc3cc(C4(C#N)CC45CC5)ccc3cn2)cn1 (single isomer, unassigned) [Ex-18.16, (R or S)-N-(6-(1-cyanospiro[2.2]pentan-1-yl)isoquinolin-3-yl)-1-methyl-1H-pyrazole-4-carboxamide]
IC50: 3.09 nM

Cc1cc2cnc(NC(=O)C3CC34CC4)cc2cc1C1CCN(C2(C)COCC2O)CC1 (single isomer, unassigned) [Ex-16.13, N-(6-(1-(4-hydroxy-3-methyltetrahydrofuran-3-yl)piperidin-4-yl)-7-methylisoquinolin-3-yl)spiro[2.2]pentane-1-carboxamide]
IC50: 0.0813 nM

Cc1cc2cnc(NC(=O)C3CC3c3ccccn3)cc2cc1C1CCN(C2(C)COCC2F)CC1 (single isomer, unassigned) [Ex-13.2, (1R,2R or 1S,2S)-N-(6-(1-((3R,4R or 3S,4S)-4-fluoro-3-methyltetrahydrofuran-3-yl)piperidin-4-yl)-7-methylisoquinolin-3-yl)-2-(pyridin-2-yl)cyclopropane-1-carboxamide]
IC50: 38.9 nM

CC(C)OC1CCC(C(=O)Nc2cc3cc(C4CCN(C5(C)COCC5O)CC4)c(Cl)cc3cn2)CO1 (centres unmarked) [Ex-2.27]
IC50: 0.324 nM

N#CC1(c2ccc3cnc(NC(=O)C4CC4)cc3c2)CC12CC2 (single isomer, unassigned) [Ex-18.1, N-(6-(1-cyanospiro[2.2]pentan-1-yl)isoquinolin-3-yl)cyclopropanecarboxamide]
IC50: 2.29 nM

CCOC1CC2(C1)CC2C(=O)Nc1cc2cc(C3CCN(C4(C)COCC4O)CC3)c(Cl)cc2cn1 (single isomer, unassigned) [Ex-4.31, N-(7-chloro-6-(1-(4-hydroxy-3-methyltetrahydrofuran-3-yl)piperidin-4-yl)isoquinolin-3-yl)-5-ethoxyspiro[2.3]hexane-1-carboxamide]
IC50: 5.62 nM

CCOC1CC2(C1)CC2C(=O)Nc1cc2cc(C3CCN(C4(C)COCC4F)CC3)c(Cl)cc2cn1 (centres unmarked) [Ex-2.82]
IC50: 0.0813 nM

O=C(Nc1cc2cc(C3CCN(C4COC4)CC3)c(Cl)cc2cn1)C1CC12CCOCC2 (single isomer, unassigned) [Ex-9.7, N-(7-chloro-6-(1-(oxetan-3-yl)piperidin-4-yl)isoquinolin-3-yl)-6-oxaspiro[2.5]octane-1-carboxamide]
IC50: 1.95 nM

CC1CC1C(=O)Nc1cc2cc(C3CCN(C4COC4)CC3)c(Cl)cc2cn1 (single isomer, unassigned) [Ex-9.4, N-(7-chloro-6-(1-(oxetan-3-yl)piperidin-4-yl)isoquinolin-3-yl)-2-methylcyclopropane-1-carboxamide]
IC50: 5.75 nM

N#CC1(c2ccc3cnc(NC(=O)C4CC4)cc3c2)CC1 [Ex-17.1]
IC50: 19.1 nM

CC1(N2CCC(c3cc4cc(NC(=O)C5CC56CC6)ncc4cc3Cl)CC2)COCC1O (single isomer, unassigned) [Ex-4.6, N-(7-chloro-6-(1-(4-hydroxy-3-methyltetrahydrofuran-3-yl)piperidin-4-yl)isoquinolin-3-yl)spiro[2.2]pentane-1-carboxamide]
IC50: 0.148 nM

N#CC1(c2ccc3cnc(NC(=O)C4CC4)cc3c2)CCC1 [Ex-17.2]
IC50: 14.5 nM

CO[C@H]1C[C@H](C(=O)Nc2cc3cc(C4(C#N)CC45CC5)ccc3cn2)C1.O=C(O)C(F)(F)F (some centres unmarked) [Ex-1.1]
LRRK2 pIC50: 8.96

CC1(N2CCC(c3cc4cc(NC(=O)C5CC5c5ccncc5)ncc4cc3Cl)CC2)COCC1O (single isomer, unassigned) [Ex-4.22, N-(7-chloro-6-(1-(4-hydroxy-3-methyltetrahydrofuran-3-yl)piperidin-4-yl)isoquinolin-3-yl)-2-(pyridin-4-yl)cyclopropane-1-carboxamide]
IC50: 1.74 nM

CC1CC1(C#N)c1ccc2cnc(NC(=O)C3CC3)cc2c1 (single isomer, unassigned) [Ex-18.6, (R or S)-N-(6-(1-cyano-2-methylcyclopropyl)isoquinolin-3-yl)cyclopropanecarboxamide]
IC50: 60.3 nM

Cn1ccc(C2CC2C(=O)Nc2cc3cc(C4(C#N)CC45CC5)ccc3cn2)n1 (centres unmarked) [Ex-2.72]
IC50: 3.31 nM

Cn1cc(C2CC2C(=O)Nc2cc3cc(C4CCN(C5(C)COCC5O)CC4)c(Cl)cc3cn2)cn1 (centres unmarked) [Ex-2.36]
IC50: 0.55 nM

Cn1cc(C2CC2C(=O)Nc2cc3cc(C4(C#N)CC45CC5)ccc3cn2)cn1 (single isomer, unassigned) [Ex-1.23, (1R,2R or 1S,2S)-N-(6-((R or S)-1-cyanospiro[2.2]pentan-1-yl)isoquinolin-3-yl)-2-(1-methyl-1H-pyrazol-4-yl)cyclopropane-1-carboxamide]
IC50: 1.58 nM

CC1(C)CCC(C(=O)Nc2cc3cc(C4CCC(N5CCC(F)C5)CC4)c(Cl)cc3cn2)CO1 (single isomer, unassigned) [Ex-5.23, N-(7-chloro-6-(4-(3-fluoropyrrolidin-1-yl)cyclohexyl)isoquinolin-3-yl)-6,6-dimethyltetrahydro-2H-pyran-3-carboxamide]
IC50: 3020 nM

O=C(Nc1cc2cc(C3CCN(C4COC4)CC3)c(Cl)cc2cn1)C1CC12CCC2 (racemic) [Ex-1.14, Rac-N-(7-chloro-6-(1-(oxetan-3-yl)piperidin-4-yl)isoquinolin-3-yl)spiro[2.3]hexane-1-carboxamide]
IC50: 1.35 nM

COCC(C)c1cc2cc(NC(=O)C3CC3c3ccccn3)ncc2cc1Cl (single isomer, unassigned) [Ex-9.19, N-(7-chloro-6-(1-methoxypropan-2-yl)isoquinolin-3-yl)-2-(pyridin-2-yl)cyclopropane-1-carboxamide]
IC50: 11 nM

CC1(C)CCC(C(=O)Nc2cc3cc(C4CCC(N5CCC(F)C5)CC4)c(Cl)cc3cn2)CO1 (single isomer, unassigned) [Ex-5.20, N-(7-chloro-6-(4-(3-fluoropyrrolidin-1-yl)cyclohexyl)isoquinolin-3-yl)-6,6-dimethyltetrahydro-2H-pyran-3-carboxamide]
IC50: 10.5 nM

CC1(N2CCC(c3cc4cc(NC(=O)C5CC5c5ccccn5)ncc4cc3Cl)CC2)CCOC1 (single isomer, unassigned) [Ex-6.34, N-(7-chloro-6-(1-(3-methyltetrahydrofuran-3-yl)piperidin-4-yl)isoquinolin-3-yl)-2-(pyridin-2-yl)cyclopropane-1-carboxamide]
IC50: 0.977 nM
